Consider five molecules from patent US20190040025A1, “INDOLEAMINE 2,3-DIOXYGENASE INHIBITOR, PREPARATION METHOD THEREFOR, AND APPLICATION” (Jiangsu Hansoh Pharmaceutical Group Co., Ltd., priority 2016, published 2019).

The structures appear in SMILES notation.

Series [1] has as its target T1, Human indoleamine 2,3-dioxygenase (IDO) (Homo sapiens, UniProt P14902).
T1 construct: purchased BPS Bioscience Inc
Description: Enzymatic test for IDO activity inhibition. Type of series: biochemical. As to conditions: 40 nM IDO enzyme, 0.2 mM L-tryptophan, 60 minutes at 30° C. The method, then:
Human indoleamine 2,3-dioxygenase (IDO) was purchased from BPS Bioscience Inc. The enzymatic reaction of idoleamine 2,3-dioxygenase (IDO) was performed in a 96-well plate with a reaction volume of 20 μL. The reaction conditions were: 40 nM IDO enzyme, 0.2 mM L-tryptophan, 50 mM KPB (pH 6.5) buffer, 20 mM sodium L-L-ascorbate, 10 μM methylene blue, 0.2 mg/mL catalase, different concentrations of compounds containing <1% dimethyl sulfoxide. After reacting for 60 minutes at 30° C., 5 μL of 30% (w/v) trichloroacetic acid (in 50 mM KPB buffer) weres added to each well. The plate was incubated for 30 minutes at 50° C. to hydrolyze N-formyl-kynurenine to kynurenine. 25 μL of 2% (w/v) p-(dimethylamino)benzaldehyde (p-DMBA)/glacial acetic acid solution were added to each well. The absorbance at 490 nm was read on a BioTek Synergy H1 microplate reader […].
The stock solution of the test compound was prepared to 10 mM with dimethyl sulfoxide, diluted with dimethyl sulfoxide to the highest concentration of the test during the experiment, then diluted in 1:3 gradient, and generally diluted to 8 to 10 concentration points. Duplicate wells were set for each concentration point, and one reference compound was included in each experiment. The original data of the absorbance at 490 nm read on a microplate reader were analyzed. The inhibition of IDO enzyme activity was calculated at different concentrations of the test compound. The half-inhibitory concentration IC50 value of the compound was obtained by non-linear fitting analysis of inhibition percentage data by GraphPad Prism software.

The target in series [2] is T2, indoleamine 2,3-dioxygenase (IDO) in HeLa cells (Homo sapiens, UniProt P14902).
T2 construct: Interferon γ induced the expression of IDO in HeLa cells; host or cells: HeLa cells induced with interferon γ
T2 sequence (P14902 whole entry): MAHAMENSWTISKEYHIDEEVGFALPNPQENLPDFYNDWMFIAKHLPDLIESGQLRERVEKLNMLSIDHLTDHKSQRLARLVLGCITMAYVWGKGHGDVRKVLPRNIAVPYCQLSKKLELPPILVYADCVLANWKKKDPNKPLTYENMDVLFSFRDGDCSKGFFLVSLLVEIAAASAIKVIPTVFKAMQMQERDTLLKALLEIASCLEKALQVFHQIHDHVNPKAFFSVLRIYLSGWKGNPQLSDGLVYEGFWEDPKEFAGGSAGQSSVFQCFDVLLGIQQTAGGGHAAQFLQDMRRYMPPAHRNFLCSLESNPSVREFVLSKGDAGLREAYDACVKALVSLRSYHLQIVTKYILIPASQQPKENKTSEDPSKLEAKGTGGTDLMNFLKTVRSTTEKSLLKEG
Description: Cell model test for IDO activity inhibition (interferon γ induced HeLa cells). Type of series: cell-based. The conditions noted are these: interferon γ 50 ng/mL, 24 hours, read-out: Cytological Test IC50. The method, then:
Interferon γ induced the expression of IDO in HeLa cells. This model was used to test the inhibitory activity of compounds on indoleamine 2,3-dioxygenase (IDO). The culture medium of HeLa cells (ATCC) was phenol red-free RPMI-1640 containing 100 μM L-tryptophan. The stock solution of the test compound was prepared to 10 mM with dimethyl sulfoxide, and diluted with dimethyl sulfoxide to the highest concentration of the test during the experiment, then diluted in three-fold gradient, and generally diluted to 8 to 10 concentration points. Duplicate wells were set for each concentration point. The final concentration of DMSO was 0.5%, and internal reference compound was included in each experiment.
The procedure of the experiment was as follows: 20,000 HeLa cells (ATCC) per well were added on a 96-well culture plate and incubated overnight. After 24 hours, interferon γ (final concentration of 50 ng/mL) and different concentrations of the test compound and the internal reference compound were added to the incubated cells. After 24 hours, 140 μL of the supernatant/well was transferred to a new 96-well plate, and 10 μL of 6.1 N trichloroacetic acid was added to each well. The plate was incubated for 30 minutes at 50° C. to hydrolyze N-formyl-kynurenine to kynurenine. The reaction mixture was centrifuged at 2500 rpm for 10 minutes to remove the precipitate, and the supernatant (100 μL) was transferred to another new 96-well plate. 100 μL of 2% (W/V) p-(dimethylamino)benzaldehyde (p-DMBA)/glacial acetic acid solution was added to each well. The absorbance at 490 nm was read on a BioTek Synergy H1 microplate reader […].
The original data of the absorbance at 490 nm read on a microplate reader were analyzed. The inhibition of IDO enzyme activity was calculated at different concentrations of the test compound. The half-inhibitory concentration IC50 value of the compound was obtained by non-linear fitting analysis of inhibition percentage data by GraphPad Prism software.

A short description of series [3]: Pharmacokinetic (PK) analysis of rat plasma. Type of series: in vivo. As to conditions: Sprague-Dawley, po, 20 mg/kg, SD rats, single gavage, 20 mg/10 mL/kg. The method, then: The pharmacokinetics test of the test compound was performed with Sprague Dawley (SD) rats (Shanghai Slac Laboratory Animal Co., LTD).
Mode of administration: Single gavage.
U Dosage: 20 mg/10 mL/kg.
Formulation prescription: 3% dimethylacetamide and 20% hydroxypropyl-3-cyclodextrin.
Sampling points: before administration and 15 minutes, 0.5, 1, 2, 4, 6, 8 and 24 hours after administration.
Plasma sampling and sample processing: • 1) 0.2 ml of intravenous blood was collected and placed in an EDTA-2K tube. The blood was centrifuged at 4° C. for 5 minutes at 6,000 rpm to separate the plasma, which was stored at −80° C. • 2) 160 μL of acetonitrile were added to 40 μL of plasma sample, standard, and internal reference. The mixture was shaken vertically for 3 minutes, and centrifuged at 4000 rpm for 10 minutes. 100 μL of the supernatant were taken, and then added with 100 μL of deionized water and mixed well. 100 μL of the resulting solution was taken for LC/MS/MS analysis. The instrument for plasma LC/MS/MS analysis was AB Sciex API 4000.
Liquid Chromatography Analysis: • Liquid chromatography conditions: Shimadzu LC-20AD pump • Chromatographic column: phenomenex Gemiu 5 μm C18 50×4.6 mm • Mobile phase: solution A was 0.1% formic acid solution, and solution B was acetonitrile • Flow rate: 0.8 mL/min • Elution time: 0-3.01 minutes and the eluent was as follows:
• Mass spectrometry analysis: setup conditions of mass spectrometer: positive ion electrospray ionization (ESI) mode. • Experimental results: the main parameters of pharmacokinetics were calculated by WinNonlin 6.1 and the experimental results are shown in the following table: […]

Series [4] deals with mouse rectal cancer cell line Colon26. In words: Anti-tumor effect in Colon26 tumor-bearing mouse model. Type of series: in vivo, mouse (Balb/c). As to conditions: Colon26 tumor-bearing mice. The text has this:
The present invention further used the Colon26 tumor-bearing mouse model to test the anti-tumor effect of the example compounds. The Colon26 tumor-bearing mouse model was the mouse rectal cancer cell line Colon26 purchased from Guangzhou Ginio Biological Technology Co., Ltd., and the culture medium used was RPMI1640 containing 10% fetal bovine serum. The mouse strain used for tumor-bearing was Balb/c purchased from Sino-British SIPPR/BK Lab Animal Co., Ltd. At the time of implanting, the Colon26 cells in logarithmic growth phase were collected and mixed to 10 million cells/ml. Each mouse was implanted subcutaneously with 100 μl of one million cells. When the tumor grew to about 100 cubic millimeters, animals were randomly divided into groups with 8 animals per group. Drug administration was started (D0).
Mode of administration: intragastric administration, twice a day.
(§1) Formulation prescription: 3% dimethylacetamide and 20% hydroxypropyl-β-cyclodextrin. • Administration period and tumor measurement: The administration period was 13 days. The tumor volume was measured, the mice were weighed, and the data were recorded, 3 times per week. The calculation formula of tumor volume (V) is: V=½a×b2 where a and b represent length and width, respectively. The calculation formula of T/C is: T/C (%)=100×ΔT/ΔC. Tumor inhibition rate (%)=1−T/C (%). • Experimental results: The antitumor effect of the compound of Example 15 in Colon26 tumor-bearing mouse model is shown in the following table.
Under the same experimental conditions, the dosage was adjusted. The anti-tumor effect of Example 15 and its optical isomers 18-(1) and 18-(2) in Colon26 tumor-bearing mouse model is shown in the following table: […]

Series [5] has as its system mouse pancreatic cancer cell line PAN02. In words: Anti-tumor effect in PAN02 tumor-bearing mouse model. Type of series: in vivo, mouse (C57/BL6). As to conditions: PAN02 tumor-bearing mice, 50 mg/kg intragastric twice a day.
Text: The invention used the PAN02 tumor-bearing mouse model to test the anti-tumor effect of the example compounds. The PAN02 tumor-bearing mouse model was the mouse pancreatic cancer cell line PAN02 purchased from Guangzhou Ginnio Biological Technology Co., Ltd., and the culture medium used was DMEM containing 10% fetal bovine serum. The mouse strain used for tumor-bearing was C57/BL6 purchased from Shanghai Slac Laboratory Animal Co., Ltd. At the time of implanting, the PAN02 cells in the logarithmic growth phase were collected, and mixed with the BDMatrigel matrix gel that reduced the growth factor to 50 million cells/ml. Each mouse was implanted subcutaneously with 100 μL of 5 million cells. When the tumor grew to about 100 cubic millimeters, animals were randomly divided into groups with 8 animals per group. Drug administration was started (D0).
Mode of administration: intragastrical administration, twice a day.
as §1, with “3% two methyl acetamide” for “3% dimethylacetamide”, “times a” for “times per”, “is: V=½a×b2,” for “is: V=½a×b2”, “and width” for “and width,”, “results: the anti-tumor” for “results: The antitumor”, “in PAN02” for “in Colon26”

[6] abbreviates: 25 mg/kg intragastric twice a day, D12.

T1 sequence (P14902 whole entry): as above

The IC50 is the midpoint of a concentration-inhibition curve. As a reminder, the AUC(0-inf) is total exposure, with the tail of the curve extrapolated. For orientation: Cmax means the maximum level reached in the sampled fluid or tissue. As usually defined, the Tmax is the time at which the peak concentration occurs. The term half-life denotes the time in which the quantity being followed falls by half. Consider `C[S@](=O)(CCNc1nonc1/C(=N/O)Nc1ccc(F)c(Br)c1)=NS(=O)(=O)C1CC1` [Example 18-②, (S,Z)—N-(3-bromo-4-fluorophenyl)-4-((2-(N-(cyclopropylsulfonyl)-S-methylsulfonimidoyl)ethyl)amino)-N′-hydroxy-1,2,5-oxadiazole-3-carboximidamide], for which, in series [1], the IC50 came out at 24 nM. Also, the IC50 in series [2] is 9 nM. In addition, in series [3], the AUC(0-inf) amounted to 4610 ng·h/mL, the Cmax is 2020 ng/mL, the Tmax turned out to be 0.5 h and the half-life was 1.4 h. The “Tumor inhibition rate (%) D12” value in series [4] (10 mg/kg, D12) is on record as 68.49%.

In the case of `CS(=O)(=O)N=S(C)(=O)CCNc1nonc1/C(=N/O)Nc1ccc(F)c(Br)c1` (centres unmarked) [Example 14, (Z)—N-(3-bromo-4-fluorophenyl)-N′-hydroxy-4-((2-(S-methyl-N-(methylsulfonyl)sulfonimidoyl)ethyl)amino)-1,2,5-oxadiazole-3-carboximidamide], the IC50 in series [1] came out at 38 nM. In series [2], the half-inhibitory concentration (IC50) was 12 nM. In series [3], the AUC(0-inf) was found to be 7540 ng·h/mL, the highest level (Cmax) was 1050 ng/mL, the Tmax came out at 0.5 h and the half-life was 5.5 h.

For the molecule `NC(=O)C(=O)NCCNc1nonc1/C(=N/O)Nc1ccc(F)c(Br)c1` [Example 1, (Z)—N^1-(2-((4-(N-(3-bromo-4-fluorophenyl)-N′-hydroxycarbamimidoyl)-1,2,5-oxadiazol-3-yl)amino)ethyl)oxalamide], in series [1], the IC50 is 70 nM. For the same molecule, in series [2], the IC50 came out at 15 nM. In series [3], the AUC(0-inf) was 8620 ng·h/mL, the Cmax came to 3680 ng/mL, the Tmax was determined as 0.5 h and the half-life is 2.7 h.

Turning to `NS(=O)(=O)NCCNc1nonc1C(=NO)Nc1ccc(F)c(Br)c1` [INCB-24360, Epacadostat, reference compound], in series [3], the AUC(0-inf) was determined as 2450 ng·h/mL, the highest level (Cmax) was 306 ng/mL, the Tmax amounted to 1 h and the half-life was 3.5 h. The “Average tumor volume (mm^3 ± SEM) D0” value in series [5] (D0 (start of administration)) was 102.8 ± 3.4 mm^3. In series [5] (D12), the “Average tumor volume (mm^3 ± SEM) D12” value is listed as 242.1 ± 23.4 mm^3 and the “T/C (%) D12” value is 60.3%. In series [5] (D12, 50 mg/kg), the “Tumor inhibition rate (%) D12” value turned out to be 39.7%. Moreover, in series [4] (25 mg/kg intragastric twice a day, D0 (start of administration)), the “Average tumor volume (mm^3 ± SEM) D0” value is listed as 95.3 ± 2.4 mm^3. Besides, in series [4] (setting [6]), the “Average tumor volume (mm^3 ± SEM) D12” value was determined as 565.2 ± 10.9 mm^3 and the “T/C (%) D12” value came out at 21.6%. The “Tumor inhibition rate (%) D12” value in series [4] (25 mg/kg intragastric twice a day, D12, 25 mg/kg) is on record as 78.4%.

With `C[S@@](=O)(CCNc1nonc1/C(=N/O)Nc1ccc(F)c(Br)c1)=NS(=O)(=O)C1CC1` [Example 18-①, (R,Z)—N-(3-bromo-4-fluorophenyl)-4-((2-(N-(cyclopropylsulfonyl)-S-methylsulfonimidoyl)ethyl)amino)-N′-hydroxy-1,2,5-oxadiazole-3-carboximidamide], in series [1], the IC50 turned out to be 19 nM. Moreover, in series [2], the IC50 is 11 nM. In addition, in series [3], the AUC(0-inf) was 7320 ng·h/mL, the Cmax came to 2770 ng/mL, the Tmax was 0.5 h and the half-life was 2.03 h. Moreover, in series [4] (10 mg/kg, D12), the “Tumor inhibition rate (%) D12” value was 72.54%.
